Data on 25 compounds can be found in US5250679A, “Nonpeptidyl platelet aggregation inhibitors having specificity for the GPIIb III receptor” (Genentech, Inc., priority 1992, dated 1993).

The target in experiment [1] is T1, Human Vitronectin receptor (av b3) (Homo sapiens, UniProt P05106+P06756).
T1 construct: is purified from human placenta; from tissue; host or cells: human placenta
As to the kind of experiment: Human Vitronectin-Vitronectin Receptor (av b3) ELISA Assay (Vn/VnR). Type of experiment: binding. The note with it: Example 30, G # table. A general note: ELISA stands for enzyme-linked immunosorbent assay.
Excerpt: Human vitronectin (Vn) is isolated from human plasma and purified by affinity chromatography by the method of Yatohgo et. al., (Cell Structure and Function 13: 281-292 [1988]).
Human vitronection receptor (VnR) is purified from human placenta by the method of Pytela et al., (Methods Enzymol., 144: 475 [1987]). Alternatively the av b3 receptor can be purified from some cell lines (e.g., human embryonic kidney 293 cells) transfected with DNA sequences for both the av and b3 subunits. The subunits are purified by employing octylglucoside extraction followed by Con-A, Heparin-Sepharose, and S-300 Chromatography.
This mouse Mab is specific for the b3 subunit of the vitronectin receptor.
Rabbit Fab 2 anti-mouse Fc fragment horse radish peroxidase conjugate (anti-MuFc HRP) is obtained from PelFreeze (cat. no. 715305-1).
Maxisorp microtiter plates are coated with 2 mg/ml human vitronectin dissolved in PBS (50 ml/well) and stored overnight at 4° C. The plates are washed two times with PBS-0.05% Tween-20 (wash buffer) and blocked by incubating with about 150 ml/well of assay buffer (1%, BSA [RIA grade or better] in 50 mM Tris-HCl, 100 mM NaCl, 1 mM MgCl2, CaCl2, MnCl2 pH 7.4) for 60 minutes. […] The blocked plates are emptied and 25 ml/well of inhibitor or standard solution is added to each well. Twenty-five ml of a 30 mg/ml solution of purified av b3 in assay buffer is pipetted into the coated plate. The final concentration of receptor in the assay well is about 15 mg/ml. The plate is incubated on a shaker for 60 minutes. Meanwhile, for each microtite plate, 6 ml buffer solution containing 1.5 mg/ml of mouse monoclonal antibody specific for b3 is prepared. To this solution is added ml of the secondary antibody, which is anti-mouse-Fc-HRP antibody conjugate. For example, for one plate, prepare 6 ml of a 1.5 mg/ml mouse Mab solution to which is added 1 ml of anti-mouse-Fc-HRP antibody stock, (this represents a 1:6000 dilution of the antibody-HRP conjugate). This mixture is allowed to incubate during the receptor-inhibitor incubation. The assay plates are washed 4 times with PBS-Tween and 50 ml/well of the antibody mixture is then pipetted into the plate for a 60 minute incubation. The plate is washed 4 times and the color reaction is developed with 50 ml/well of 0.67 mg/ml o-phenyldiamine in PBS containing 0.012% H2 O2. Alternatively, 16 mM citric acid, 50 mM Na2 PO4 at pH 5.0 can be used as a substrate buffer. The reaction is stopped with 50 ml/well 1 M H2 SO4. The plates are read at 492-405 nm and the data analyzed by four-parameter fit.

The test system of experiment [2] is human platelet rich plasma (PRP). As to the kind of experiment: In Vitro Human Platelet Aggregation Assay (PA). Type of experiment: cell-based. As to the method: In addition to the GPIIb IIIa ELISA assay, platelet aggregation assays may be performed in human platelet rich plasma (PRP). […] The blood is centrifuged at 160×g for 10 min at 22° C. and then allowed to stand for 5 min after which the PRP is decanted. Platelet poor plasma (PPP) is isolated from the remaining blood after centrifugation at 2000×g for 25 min. The platelet count of the PRP is adjusted to ca. 300,000 per microliter with PPP.
A 225 mL aliquot of PRP plus 25 mL of either a dilution of the test sample or a control (PBS) is incubated for 5 min in a Chrono-log Whole Blood Aggregometer at 25° C. An aggregating agent (collagen, 1 mg/ml; U46619, 100 ng/ml; or ADP, 8 mM) is added and the platelet aggregation recorded.
Platelet aggregation assays are performed in human platelet rich plasma (PRP). […] The blood is centrifuged at 160×g for 10 minutes at 22° C. and allowed to stand for 5 minutes after which the PRP is decanted. Platelet poor plasma (PPP) is isolated from the remaining blood after centrifugation at 2000×g for 25 minutes. The platelet count of the PRP is diluted to about 300,000 platelets per microliter with PPP.
A 225 ml aliquot of PRP plus 25 ml of either a dilution of the test inhibitor sample or a control (PBS) is incubated for 5 minutes in a Chrono-log Whole Blood Aggregometer at 25° C. An aggregating agent (collagen, 1 mg/ml; U46619, 100 ng/ml; or ADP, 17 mM) is added and the transmission is recorded.

Experiment [3] has as its target T2, GP IIb IIIa (Homo sapiens, UniProt P05106+P08514).
T2 construct: from tissue; host or cells: outdated human platelets
The experiment is described as follows: Fibrinogen-GP IIb IIIa Receptor ELISA Binding Assay (Fg/IIbIIIa). Summed up: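 Purified human platelet GP IIb IIIa binding to immobilised purified fibrinogen was run with compound at room temperature for 1 h. IC50 values were determined.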

The mark [4] stands for this setting: Homo sapiens, Platelet, citrate, read-out: PA IC50 (μM) (citrate).
Where [5] appears, read: Example 29, Cmpd # 1-105, read-out: IC50 Fg/IIbI.
Setting [6] is: Example 30, G # table, read-out: IC50 (μM) Fg/IIbIIIa.
Setting [7] is: Homo sapiens, Platelet, heparin, read-out: PA IC50 (μM) (heparin).
Setting [8] is: Examples 29 and 30, Cmpd # tables, read-out: IC50 (μM) Fg/IIbIIIa.

Counter-ions that a name gives are not always drawn. Like-named read-outs stand apart in the source and are kept apart here.

T2 sequence (P08514 32-887 limits assumed): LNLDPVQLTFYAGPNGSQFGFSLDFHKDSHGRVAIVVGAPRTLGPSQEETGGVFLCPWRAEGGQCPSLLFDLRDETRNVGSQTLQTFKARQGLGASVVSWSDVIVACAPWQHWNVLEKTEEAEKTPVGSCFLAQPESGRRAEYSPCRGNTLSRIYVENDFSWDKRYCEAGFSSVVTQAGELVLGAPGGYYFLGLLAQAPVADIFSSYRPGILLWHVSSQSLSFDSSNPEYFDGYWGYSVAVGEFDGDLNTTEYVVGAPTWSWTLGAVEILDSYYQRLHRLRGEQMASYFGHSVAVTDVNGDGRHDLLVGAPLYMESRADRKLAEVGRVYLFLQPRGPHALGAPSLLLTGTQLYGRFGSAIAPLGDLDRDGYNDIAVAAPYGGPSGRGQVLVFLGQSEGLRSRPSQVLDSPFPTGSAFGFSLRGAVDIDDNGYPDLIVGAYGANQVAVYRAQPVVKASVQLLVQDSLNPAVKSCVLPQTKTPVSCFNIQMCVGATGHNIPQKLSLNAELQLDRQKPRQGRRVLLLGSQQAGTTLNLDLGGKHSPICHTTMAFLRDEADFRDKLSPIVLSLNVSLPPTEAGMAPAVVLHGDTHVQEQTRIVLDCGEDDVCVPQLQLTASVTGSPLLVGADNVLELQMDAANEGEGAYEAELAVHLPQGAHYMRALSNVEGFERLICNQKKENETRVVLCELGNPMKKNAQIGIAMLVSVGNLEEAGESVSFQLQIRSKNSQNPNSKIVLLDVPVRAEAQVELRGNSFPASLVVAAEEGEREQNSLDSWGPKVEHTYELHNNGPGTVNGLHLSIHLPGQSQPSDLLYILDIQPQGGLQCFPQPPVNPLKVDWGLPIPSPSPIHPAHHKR
T2 sequence (P08514 891-1039 partner limits assumed): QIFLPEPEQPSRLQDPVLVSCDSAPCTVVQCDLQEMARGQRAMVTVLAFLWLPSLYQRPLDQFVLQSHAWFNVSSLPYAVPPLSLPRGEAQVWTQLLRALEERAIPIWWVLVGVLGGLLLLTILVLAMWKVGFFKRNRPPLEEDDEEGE
T2 sequence (P05106 27-788): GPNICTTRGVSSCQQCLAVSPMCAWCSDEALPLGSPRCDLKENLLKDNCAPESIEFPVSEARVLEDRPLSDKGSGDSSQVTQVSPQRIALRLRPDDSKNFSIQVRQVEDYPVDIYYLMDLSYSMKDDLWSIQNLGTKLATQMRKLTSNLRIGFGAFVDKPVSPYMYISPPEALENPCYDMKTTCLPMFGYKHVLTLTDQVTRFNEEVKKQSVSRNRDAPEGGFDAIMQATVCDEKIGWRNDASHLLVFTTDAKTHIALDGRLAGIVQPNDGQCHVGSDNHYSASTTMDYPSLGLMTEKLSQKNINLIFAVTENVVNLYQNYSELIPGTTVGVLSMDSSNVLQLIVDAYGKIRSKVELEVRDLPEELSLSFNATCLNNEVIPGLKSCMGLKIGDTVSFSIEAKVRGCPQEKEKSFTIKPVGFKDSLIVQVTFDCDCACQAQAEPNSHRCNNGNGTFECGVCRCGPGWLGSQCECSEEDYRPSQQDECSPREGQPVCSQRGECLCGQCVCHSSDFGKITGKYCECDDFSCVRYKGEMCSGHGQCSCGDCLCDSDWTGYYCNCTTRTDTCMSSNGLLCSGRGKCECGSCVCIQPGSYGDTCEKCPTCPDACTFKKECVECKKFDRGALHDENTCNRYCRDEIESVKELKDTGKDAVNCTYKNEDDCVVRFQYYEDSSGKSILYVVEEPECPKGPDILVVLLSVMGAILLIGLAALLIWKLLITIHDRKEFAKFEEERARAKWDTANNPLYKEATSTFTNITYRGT
T1 sequence (P06756 31-889 limits assumed): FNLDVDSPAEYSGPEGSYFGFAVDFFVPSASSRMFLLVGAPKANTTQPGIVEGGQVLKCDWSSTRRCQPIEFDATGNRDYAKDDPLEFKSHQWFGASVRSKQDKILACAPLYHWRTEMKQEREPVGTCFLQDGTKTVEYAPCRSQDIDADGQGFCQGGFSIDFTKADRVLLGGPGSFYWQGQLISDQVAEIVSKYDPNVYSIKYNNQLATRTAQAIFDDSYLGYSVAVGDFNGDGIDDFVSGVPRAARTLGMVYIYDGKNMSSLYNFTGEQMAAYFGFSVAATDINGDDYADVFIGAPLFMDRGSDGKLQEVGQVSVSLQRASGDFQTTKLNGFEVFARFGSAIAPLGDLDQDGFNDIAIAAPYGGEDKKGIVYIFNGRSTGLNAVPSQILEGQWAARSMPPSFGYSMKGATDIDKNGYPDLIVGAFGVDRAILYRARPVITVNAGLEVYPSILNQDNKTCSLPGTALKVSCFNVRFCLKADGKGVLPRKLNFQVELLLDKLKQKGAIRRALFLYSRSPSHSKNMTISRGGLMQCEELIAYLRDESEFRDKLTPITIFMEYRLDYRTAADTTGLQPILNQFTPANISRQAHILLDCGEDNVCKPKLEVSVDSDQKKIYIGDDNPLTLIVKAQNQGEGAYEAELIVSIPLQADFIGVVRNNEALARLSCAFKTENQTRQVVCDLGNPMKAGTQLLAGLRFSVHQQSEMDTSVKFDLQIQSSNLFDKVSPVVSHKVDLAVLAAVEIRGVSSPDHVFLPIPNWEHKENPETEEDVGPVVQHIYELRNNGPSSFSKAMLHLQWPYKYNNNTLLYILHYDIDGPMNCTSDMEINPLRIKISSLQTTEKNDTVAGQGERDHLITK
T1 sequence (P06756 891-1048 partner limits assumed): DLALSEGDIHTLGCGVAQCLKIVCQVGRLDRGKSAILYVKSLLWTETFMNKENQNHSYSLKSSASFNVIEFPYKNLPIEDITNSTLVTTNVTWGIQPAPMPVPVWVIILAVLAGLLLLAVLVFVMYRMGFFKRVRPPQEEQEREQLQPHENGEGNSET
T1 sequence (P05106 27-788): as the sequence (P05106 27-788) above

For `N=C(N)NCCCc1ccc2c(c1)C(=O)N(CCC(=O)O)CC(=O)N2` [Cmpd 2], the IC50 is more than 10 µM in experiment [1], more than 5 µM in experiment [2] (setting [4]), 0.714 µM in experiment [3] (setting [5]) and 0.714 µM in experiment [3] (setting [6]).

As for `CN1C(=O)CN(CCC(=O)O)C(=O)c2cc(C#CCCNC(=N)N)ccc21` [Cmpd 22], the IC50 was more than 10 µM in experiment [1], 8.96 µM in experiment [2] (setting [4]), 0.14 µM in experiment [3] (setting [5]) and 0.14 µM in experiment [3] (setting [6]).

Turning to `CN1C(=O)CN(CCC(=O)O)C(=O)c2cc(C#CCCCNC(=N)N)ccc21` [Cmpd 34, 1-methyl-4-(2-carboxyethyl)-7-(5-guanidino-1-pentynyl)-3,4-dihydro-1H-1,4-benzodiazepine-2,5-dione trifluroacetate], the IC50 in experiment [1] was more than 10 µM; in experiment [2] (setting [4]) it was 3.1 µM; in experiment [2] (setting [7]) it was 7.5 µM; in experiment [3] (setting [5]), 0.0036 µM; in experiment [3] (setting [6]), 0.0036 µM.

Consider `NCCCC#Cc1ccc2c(c1)C(=O)N(CCC(=O)O)CC(=O)N2Cc1cccc([N+](=O)[O-])c1` [Cmpd 35, 1-(3-nitrobenzyl)-4-(2-carboxyethyl)-7-(5-amino-1-pentynyl)-3,4-dihydro-1H-1,4-benzodiazepine-2,5-dione trifluroacetate], for which the IC50 in experiment [1] is more than 10 µM; in experiment [2] (setting [4]), 2.4 µM; in experiment [2] (setting [7]), 8 µM; in experiment [2] (heparin, read-out: PA IC50 (μM) (heparin)), 9.53 µM; in experiment [3] (setting [5]), 0.013 µM; in experiment [3] (setting [6]), 0.013 µM.

Take `CN1C(=O)CN(CCC(=O)O)C(=O)c2cc(C#CCCCCNC(=N)N)ccc21` [Cmpd 42, 1-(methyl)-4-(2-carboxyethyl)-7-(6-guanidino-1-hexynyl)-3,4-dihydro-1H-1,4-benzodiazepine-2,5-dione trifluroacetate]: the IC50 in experiment [1] is more than 10 µM; in experiment [2] (setting [4]) it was 2.66 µM; in experiment [3] (setting [5]) it was 0.06 µM; in experiment [3] (setting [6]) it was 0.009 µM.

For the compound `CN1C(=O)CN(CCC(=O)O)C(=O)c2cc(C#Cc3ccc(CN)cc3)ccc21` [Cmpd 43, 1-(methyl)-4-(2-carboxyethyl)-7-[4-(aminomethyl)phenyl]ethynyl-3,4-dihydro-1H-1,4-benzodiazepine-2,5-dione trifluroacetate], the IC50 in experiment [1] was more than 10 µM; in experiment [2] (setting [4]) it was 1.7 µM; in experiment [2] (setting [7]) it was 3.34 µM; in experiment [3] (setting [5]) it was 0.012 µM; in experiment [3] (setting [6]), 0.012 µM.

Regarding `CN1C(=O)CN(CCC(=O)O)C(=O)c2cc(C#Cc3ccc(CNC(=N)N)cc3)ccc21` [Cmpd 44, 1-(methyl)-4-(2-carboxyethyl)-7-[4-(guanidinomethyl)phenyl]ethynyl-3,4-dihydro-1H-1,4-benzodiazepine-2,5-dione trifluroacetate], the IC50 is more than 10 µM in experiment [1]; 8.8 µM in experiment [2] (setting [4]); 14.3 µM in experiment [2] (setting [7]); 0.012 µM in experiment [3] (setting [5]); 0.012 µM in experiment [3] (setting [6]).

Take `NCCCCC#Cc1ccc2c(c1)C(=O)N(CCC(=O)O)CC(=O)N2Cc1cccc([N+](=O)[O-])c1` [Cmpd 55, 1-(3-nitrobenzyl)-4-(2-carboxyethyl)-7-(6-amino-1-hexynyl)-3,4-dihydro-1H-1,4-benzodiazepine-2,5-dione trifuroacetate]: the IC50 in experiment [1] was more than 10 µM; in experiment [2] (setting [7]) it was 2.2 µM; in experiment [3] (setting [5]), 0.008 µM; in experiment [3] (setting [6]) it was 0.008 µM.

In the case of `N=C(N)NCCCCC#Cc1ccc2c(c1)C(=O)N(CCC(=O)O)CC(=O)N2Cc1cccc([N+](=O)[O-])c1` [Cmpd 56, 1-(3-nitrobenzyl)-4-(2-carboxyethyl)-7-(6-guanidino-1-hexynyl)-3,4-dihydro-1H-1,4-benzodiazepine-2,5-dione trifluroacetate], the IC50 in experiment [1] is more than 10 µM; in experiment [2] (setting [7]), 15 µM; in experiment [3] (setting [5]) it was 0.006 µM; in experiment [3] (setting [6]), 0.006 µM.

Consider `NCCCCC#Cc1ccc2c(c1)C(=O)N(CCC(=O)O)CC(=O)N2Cc1ccc(Cl)cc1` [Cmpd 60], for which the IC50 is more than 10 µM in experiment [1], 2.12 µM in experiment [2] (setting [4]), 0.014 µM in experiment [3] (setting [5]) and 0.014 µM in experiment [3] (setting [6]).

With `N=C(N)NCCCCCc1ccc2c(c1)C(=O)N(CCC(=O)O)CC(=O)N2Cc1ccc(Cl)cc1` [Cmpd 63], the IC50 in experiment [1] is more than 10 µM; in experiment [2] (setting [4]), 2.55 µM; in experiment [3] (setting [5]), 0.011 µM; in experiment [3] (setting [6]), 0.011 µM.

As to `NCCCCCCc1ccc2c(c1)C(=O)N(CCC(=O)O)CC(=O)N2Cc1ccc(Cl)cc1` [Cmpd 64, 1-(4-chlorophenyl)methyl-4-(2-carboxyethyl)-7-(6-aminohexyl)-3,4-dihydro-1H-1,4-benzodiazapine-2,5-dione], the IC50 in experiment [1] was more than 10 µM; in experiment [2] (setting [4]), 1.2 µM; in experiment [2] (setting [7]) it was 4.76 µM; in experiment [3] (setting [5]), 0.014 µM; in experiment [3] (setting [6]) it was 0.014 µM.

As for `NCCCCCCCc1ccc2c(c1)C(=O)N(CCC(=O)O)CC(=O)N2Cc1ccc(Cl)cc1` [Cmpd 66], the IC50 in experiment [1] is more than 10 µM; in experiment [2] (setting [4]), 3.88 µM; in experiment [3] (setting [5]), 0.026 µM; in experiment [3] (setting [6]), 0.026 µM.

Regarding `NCCCCCc1ccc2c(c1)C(=O)N(CCC(=O)O)CC(=O)N2C(c1ccccc1)c1ccccc1` [Cmpd 68, 1-(diphenylmethyl)-4-(2-carboxyethyl)-7-(5-aminopentyl)-3,4-dihydro-1H-1,4-benzodiazepine-2,5-dione trifluoroacetate], the IC50 in experiment [1] is more than 10 µM; in experiment [2] (setting [4]), 1.66 µM; in experiment [2] (setting [7]), 3.4 µM; in experiment [3] (setting [5]), 0.02 µM; in experiment [3] (setting [6]), 0.028 µM.

In the case of `N=C(N)NCCCCCc1ccc2c(c1)C(=O)N(CCC(=O)O)CC(=O)N2C(c1ccccc1)c1ccccc1` [Cmpd 69, 1-(diphenylmethyl)-4-(2-carboxyethyl)-7-(5-guanidinopentyl)-3,4-dihydro-1H-1,4-benxodiazepine-2,5-dione trifluoroacetate], the IC50 in experiment [1] is more than 10 µM; in experiment [2] (setting [4]), 2.09 µM; in experiment [2] (setting [7]) it was 3.9 µM; in experiment [3] (setting [5]) it was 0.082 µM; in experiment [3] (setting [6]) it was 0.082 µM.

As to `N=C(N)NCCCC#Cc1ccc2c(c1)C(=O)N(CCC(=O)O)CC(=O)N2C(c1ccccc1)c1ccccc1` [Cmpd 71], the IC50 is more than 10 µM in experiment [1]; 0.34 µM in experiment [2] (setting [4]); 0.95 µM in experiment [2] (setting [7]); 0.008 µM in experiment [3] (setting [5]); 0.008 µM in experiment [3] (setting [6]).

For the compound `N=C(N)NCCCCCCc1ccc2c(c1)C(=O)N(CCC(=O)O)CC(=O)N2Cc1cccc(NC(=O)CCCNC(=N)N)c1` [Cmpd 113], the IC50 in experiment [2] (setting [4]) amounted to 0.87 µM; in experiment [3] (setting [6]), 0.01 µM; in experiment [3] (setting [8]), 0.01 µM.

Take `NCCCCCCc1ccc2c(c1)C(=O)N(CCC(=O)O)CC(=O)N2Cc1cccc(NC(=O)CCCCN)c1` [Cmpd 114]: the IC50 in experiment [2] (setting [4]) came to 0.31 µM; in experiment [3] (setting [6]), 0.008 µM; in experiment [3] (setting [8]), 0.008 µM.

As to `N=C(N)NCCCCCCc1ccc2c(c1)C(=O)N(CCC(=O)O)CC(=O)N2Cc1cccc(NC(=O)CCCCNC(=N)N)c1` [Cmpd 115], the results for the IC50 in experiment [2] (setting [4]), in experiment [3] (setting [6]) and in experiment [3] (setting [8]) were 0.92 µM, 0.018 µM and 0.013 µM, respectively.

For `NCCCCCCc1ccc2c(c1)C(=O)N(CCC(=O)O)CC(=O)N2Cc1cccc(NC(=O)CCCCCN)c1` [Cmpd 116], the IC50 in experiment [2] (setting [4]) came out at 0.27 µM; in experiment [3] (setting [6]), 0.011 µM; in experiment [3] (setting [8]), 0.011 µM.

On to `N=C(N)NCCCCCCc1ccc2c(c1)C(=O)N(CCC(=O)O)CC(=O)N2Cc1cccc(NC(=O)CCCCCNC(=N)N)c1` [Cmpd 117], for which the IC50 came out at 0.64 µM in experiment [2] (setting [4]), 0.013 µM in experiment [3] (setting [6]) and 0.013 µM in experiment [3] (setting [8]).

`NCCCCCCc1ccc2c(c1)C(=O)N(CCC(=O)O)CC(=O)N2Cc1cccc(N)c1` [Cmpd 122]: the results for the IC50 in experiment [2] (setting [4]), in experiment [3] (setting [6]) and in experiment [3] (setting [8]) were 0.49 µM, 0.01 µM and 0.012 µM, respectively.

In the case of `CCCCC(=O)Nc1cccc(CN2C(=O)CN(CCC(=O)O)C(=O)c3cc(CCCCCCN)ccc32)c1` [Cmpd 123], the IC50 was determined as 0.64 µM in experiment [2] (setting [4]), 0.015 µM in experiment [3] (setting [6]) and 0.015 µM in experiment [3] (setting [8]).

Consider `CCCCC(=O)Nc1cccc(CN2C(=O)CN(CCC(=O)O)C(=O)c3cc(CCCCCCNC(=N)N)ccc32)c1` [Cmpd 124], for which the IC50 in experiment [2] (setting [4]) was found to be 2.76 µM; in experiment [3] (setting [6]) it was 0.012 µM; in experiment [3] (setting [8]), 0.012 µM.

As to `N=C(N)Nc1ccc(C(=O)Nc2cccc(CN3C(=O)CN(CCC(=O)O)C(=O)c4cc(CCCCCCN)ccc43)c2)cc1` [Cmpd 127, 1-(3-(4-guanidinobenzoyl)aminophenyl)methyl-4-(2-carboxyethyl)-7-(6-aminohexyl)-3,4-dihydro-1H-1,4-benzodiazapine-2,5-dione], the IC50 came to 0.35 µM in experiment [2] (setting [4]), 0.008 µM in experiment [3] (setting [6]) and 0.008 µM in experiment [3] (setting [8]).
